Laboratory results taken from patent publication US20250206732A1, “COMPOUNDS AND METHODS FOR THE TARGETED DEGRADATION OF KRAS” (Arvinas Operations, Inc., priority 2022, published 2025).

Key:
SW1573 HiBiT-KRASG12C = biological target: T1, SW1573 HiBiT-KRASG12C (Homo sapiens, UniProt P01116, G12C); test: HiBiT degradation assay (G12C), SW1573 HiBiT-KRASG12C cells; type: cell-based; details: 24 hours treatment; for Dmax: maximum degradation observed;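 on SW1573 HiBiT-KRASG12C DC50 (nM): Letter grades: C is 1000 to 3000 nM and D is above 3000 nM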
T1 construct: expressed in transfected cells
Method: Reagents. SW1573 (CRL-2170), AsPC-1 (CRL-1682), and SW620 (CCL-227) cells were purchased from ATCC. SW1573 cells are homozygous for the G12C mutation in KRAS, AsPC-1 cells are homozygous for the G12D mutation, and SW620 cells are homozygous for the G12V mutation. SW1573 cells were cultured in DMEM+F12+Glutamax (+Sodium Bicarbonate, +sodium pyruvate, ThermoFisher scientific, #10565) supplemented with 10% FBS (ThermoFisher scientific, #2060357) and 1% Antibiotic-Antimycotic (ThermoFisher scientific, #15240096). AsPC-1 cells were cultured in GIBCO RPMI-1640 (ThermoFisher scientific, catalog #61870-036 with Glutamax, No HEPES, No Na Pyruvate) supplemented with 10% FBS (ThermoFisher scientific, catalog #2060357) and 1× Penicillin-Streptomycin (ThermoFisher scientific, catalog #15140122, 10000 U/ml, 100×). SW620 cells were cultured in DMEM Glutamax (ThermoFisher scientific, catalog #10566016) supplemented with 10% FBS (ThermoFisher scientific, catalog #2060357) and 1× Penicillin-Streptomycin (ThermoFisher scientific, catalog #15140122, 10000 U/ml, 100×). For degradation assays, 384 well plates were used. Alamar blue was purchased from ThermoFisher scientific (A50101) and used according to manufacturer instructions. The Nano-Glo® HiBiT Lytic Detection System and Nano-Glo® HiBiT Blotting System were purchased from Promega (#N3050 and #N2410) and used according to manufacturer instructions.
HiBiT-tagged cell line generation. To create the SW1573 HiBiT-KRASG12C cell line, the nucleotide sequence encoding the 11 amino acid HiBiT tag from Promegal was appended to the N-terminus of the KRASG12C coding sequence. This synthesized DNA was cloned into a modified pcDNA3.1 vector under the control of the thymidine kinase (TK) promoter. This HiBiT-KRASG12C expressing plasmid was transfected into parental SW1573 cells and colonies were selected using 400 μg/mL zeocin. The resulting clonal lines were screened for expression of HiBiT-KRASG12C protein using Nano-Glo® HiBiT Blotting System. A luminescent band of the correct size for HiBiT-KRASG12C was detected in several clones. Clone E6 was selected for further studies.
HiBiT degradation assays (G12C and G12D). Either SW1573 HiBiT-KRasG12C or AsPC-1 HiBiT-KRasG12D cells were plated at 9000 or 15,000 cells/well in a 384 well plate (Corning #3770). Compounds of the present disclosure and positive controls were diluted in the appropriate cell media and applied to the plated cells resulting in a final concentration titration of 10 μM to 508 pM in 0.5% DMSO. Gambogic acid was used as a positive control for cytotoxicity and titrated from 10 μM to 78 nM. All assays were performed in triplicate. Cells were treated with compounds for 24 hours at 37° C. in an incubator containing 5% CO2. Following treatment, alamar blue was used to determine if any compounds led to a loss in cell viability after 24 hours. The 10× alamar blue reagent was added to a final concentration of 1× as recommended by the manufacturer and cells were returned to the incubator for 4 hours. Plates were then allowed to equilibrate to room temperature and fluorescence was measured using a Perkin-Elmer EnVision. After completion of the fluorescence read, the liquid from each well was removed and the cells were washed with PBS. The Nano-Glo® HiBiT detection reagent was prepared according to the manufacturer's instructions and added to each well after the PBS wash was removed. Following incubation at room temperature for 45 minutes, the luminescence was read using the ultra-sensitive luminescence aperture on the Envision instrument.
Data analysis. Fluorescence values from the alamar blue treatment were normalized to the DMSO-only control for each compound titration. […]

AsPC-1 HiBiT-KRASG12D = biological target: T2, AsPC-1 HiBiT-KRASG12D (Homo sapiens, UniProt P01116, G12D); test: HiBiT degradation assay (G12D), AsPC-1 HiBiT-KRASG12D cells; type: cell-based; details: 24 hours treatment; for Dmax: ASPC1, AsPC-1 HiBiT-KRASG12D cells, maximum degradation observed; for DC50: AsPC-1 HiBiT-KRASG12D cells, HiBiT luminescence
T2 construct: insert the HiBiT tag onto the N-terminus of one or more of the endogenous KRAS alleles; endogenous in cells; host or cells: AsPC-1 (ATCC CRL-1682), CRISPR-Cas9 knock-in clone, one tagged allele
Summary of the method: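 24 h cmpd treatment, 37° C/5% CO2, AsPC-1 HiBiT-KRASG12D clone (CRISPR N-term tag). Alamar blue 1×, 4 h, fluorescence. PBS wash, Nano-Glo HiBiT lytic reagent, 45 min RT, luminescence. Triplicates.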

T2 sequence (P01116 1-188 isoform P01116-2 G12D): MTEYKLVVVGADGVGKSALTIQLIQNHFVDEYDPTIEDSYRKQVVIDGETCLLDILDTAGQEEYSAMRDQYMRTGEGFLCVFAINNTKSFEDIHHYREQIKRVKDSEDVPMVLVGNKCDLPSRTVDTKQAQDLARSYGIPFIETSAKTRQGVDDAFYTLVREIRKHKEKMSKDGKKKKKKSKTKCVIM
T1 sequence (P01116 1-188 isoform P01116-2 G12C): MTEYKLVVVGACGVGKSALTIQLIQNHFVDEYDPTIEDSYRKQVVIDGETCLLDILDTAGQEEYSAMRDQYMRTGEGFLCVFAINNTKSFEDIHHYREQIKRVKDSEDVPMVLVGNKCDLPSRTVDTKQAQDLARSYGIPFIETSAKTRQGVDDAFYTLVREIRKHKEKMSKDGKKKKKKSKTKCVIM

Compound | SW1573 HiBiT-KRASG12C DC50 (nM) (SW1573 HiBiT-KRASG12C; HiBiT luminescence) | Dmax (AsPC-1 HiBiT-KRASG12D) | DC50 (AsPC-1 HiBiT-KRASG12D) | DC50 (SW1573 HiBiT-KRASG12C; HiBiT luminescence) | Dmax (SW1573 HiBiT-KRASG12C)
Cc1ncsc1-c1ccc([C@H](C)NC(=O)[C@@H]2C[C@@H](O)CN2C(=O)[C@@H](c2cc(OCC3CCN(CCOc4nc(N5CC6CCC(C5)N6)c5cnc(-c6cc(O)cc7ccccc67)c(F)c5n4)CC3)no2)C(C)C)cc1 [Compound 22, (2S,4R)-1-[(2R)-2-[3-[[1-[2-[4-(3,8-diazabicyclo[3.2.1]octan-3-yl)-8-fluoro-7-(3-hydroxy-1-naphthyl)pyrido[4,3-d]pyrimidin-2-yl]oxyethyl]-4-piperidyl]methoxy]isoxazol-5-yl]-3-methyl-butanoyl]-4-hydroxy-N-[(1S)-1-[4-(4-methylthiazol-5-yl)phenyl]ethyl]pyrrolidine-2-carboxamide] | C/D* | 20 to 60% | 600 to 1000 nM | – | –
Cc1ncsc1-c1ccc([C@H](C)NC(=O)[C@@H]2C[C@@H](O)CN2C(=O)[C@@H](NC(=O)COCC2CCN(CCOc3nc(N4CC5CCC(C4)N5)c4cnc(-c5cc(O)cc6ccccc56)c(F)c4n3)CC2)C(C)(C)C)cc1 [Compound 23, (2S,4R)-1-[(2S)-2-[[2-[[1-[2-[4-(3,8-diazabicyclo[3.2.1]octan-3-yl)-8-fluoro-7-(3-hydroxy-1-naphthyl)pyrido[4,3-d]pyrimidin-2-yl]oxyethyl]-4-piperidyl]methoxy]acetyl]amino]-3,3-dimethyl-butanoyl]-4-hydroxy-N-[(1S)-1-[4-(4-methylthiazol-5-yl)phenyl]ethyl]pyrrolidine-2-carboxamide] | – | 20 to 60% | 1000 to 3000 nM | > 3000 nM | –
CCc1cccc2cccc(-c3ncc4c(N5CC6CCC(C5)N6)nc(OC[C@]56CCCN5[C@@H](COC(=O)N5CCN(c7cc([C@H](C(=O)N8C[C@H](O)C[C@H]8C(=O)N[C@@H](C)c8ccc(-c9scnc9C)cc8)C(C)C)on7)CC5)CC6)nc4c3F)c12 [Compound 34, [(3R,7aR)-7a-{[(4-{3,8-diazabicyclo[3.2.1]octan-3-yl}-7-(8-ethylnaphthalen-1-yl)-8-fluoropyrido[4,3-d]pyrimidin-2-yl)oxy]methyl}-hexahydro-1H-pyrrolizin-3-yl]methyl 4-{5-[(2R)-1-[(2S,4R)-4-hydroxy-2-{[(1S)-1-[4-(4-methyl-1,3-thiazol-5-yl)phenyl]ethyl]carbamoyl}pyrrolidin-1-yl]-3-methyl-1-oxobutan-2-yl]-1,2-oxazol-3-yl}piperazine-1-carboxylate] | – | 80 to 100% | < 600 nM | > 3000 nM | –
CCc1cccc2cccc(-c3ncc4c(N5CC6CCC(C5)N6)nc(OC[C@@]56CCCN5[C@H](COC(=O)N5CCN(c7cc([C@H](C(=O)N8C[C@H](O)C[C@H]8C(=O)N[C@@H](C)c8ccc(-c9scnc9C)cc8)C(C)C)on7)CC5)CC6)nc4c3F)c12 [Compound 35, [(3S,7aS)-7a-{[(4-{3,8-diazabicyclo[3.2.1]octan-3-yl}-7-(8-ethylnaphthalen-1-yl)-8-fluoropyrido[4,3-d]pyrimidin-2-yl)oxy]methyl}-hexahydro-1H-pyrrolizin-3-yl]methyl 4-{5-[(2R)-1-[(2S,4R)-4-hydroxy-2-{[(1S)-1-[4-(4-methyl-1,3-thiazol-5-yl)phenyl]ethyl]carbamoyl}pyrrolidin-1-yl]-3-methyl-1-oxobutan-2-yl]-1,2-oxazol-3-yl}piperazine-1-carboxylate] | – | 80 to 100% | < 600 nM | > 3000 nM | –
C#Cc1cccc2cc(O)cc(-c3ncc4c(N5CC6CCC(C5)N6)nc(OCCN5CCC6(CC5)CN(c5cc([C@H](C(=O)N7C[C@H](O)C[C@H]7C(=O)N[C@@H](C)c7ccc(-c8scnc8C)cc7)C(C)C)on5)C6)nc4c3F)c12 [Compound 36, (2S,4R)-1-[(2R)-2-[3-(7-{2-[(4-{3,8-diazabicyclo[3.2.1]octan-3-yl}-7-(8-ethynyl-3-hydroxynaphthalen-1-yl)-8-fluoropyrido[4,3-d]pyrimidin-2-yl)oxy]ethyl}-2,7-diazaspiro[3.5]nonan-2-yl)-1,2-oxazol-5-yl]-3-methylbutanoyl]-4-hydroxy-N-[(1S)-1-[4-(4-methyl-1,3-thiazol-5-yl)phenyl]ethyl]pyrrolidine-2-carboxamide] | – | 80 to 100% | < 600 nM | > 3000 nM | –
Cc1ncsc1-c1ccc([C@H](C)NC(=O)[C@@H]2C[C@@H](O)CN2C(=O)[C@@H](c2cc(N3CCN(C(=O)OC[C@H]4CC[C@@]5(COc6nc(N7CC8CCC(C7)N8)c7cnc(-c8cc(O)cc9ccccc89)c(F)c7n6)CCCN45)CC3)no2)C(C)C)cc1 [Compound 37, [(3R,7aR)-7a-{[(4-{3,8-diazabicyclo[3.2.1]octan-3-yl}-8-fluoro-7-(3-hydroxynaphthalen-1-yl)pyrido[4,3-d]pyrimidin-2-yl)oxy]methyl}-hexahydro-1H-pyrrolizin-3-yl]methyl 4-{5-[(2R)-1-[(2S,4R)-4-hydroxy-2-{[(1S)-1-[4-(4-methyl-1,3-thiazol-5-yl)phenyl]ethyl]carbamoyl}pyrrolidin-1-yl]-3-methyl-1-oxobutan-2-yl]-1,2-oxazol-3-yl}piperazine-1-carboxylate] | – | 80 to 100% | < 600 nM | > 3000 nM | –
CCc1cccc2cc(O)cc(-c3ncc4c(N5CC6CCC(C5)N6)nc(OC[C@]56CCCN5[C@@H](COc5cc(C(C(=O)N7C[C@H](O)C[C@H]7C(=O)N[C@@H](C)c7ccc(-c8scnc8C)cc7)C(C)C)on5)CC6)nc4c3F)c12 (stereo partly drawn) [Compound 38, (2S,4R)-1-[2-(3-{[(3R,7aR)-7a-{[(4-{3,8-diazabicyclo[3.2.1]octan-3-yl}-7-(8-ethyl-3-hydroxynaphthalen-1-yl)-8-fluoropyrido[4,3-d]pyrimidin-2-yl)oxy]methyl}-hexahydro-1H-pyrrolizin-3-yl]methoxy}-1,2-oxazol-5-yl)-3-methylbutanoyl]-4-hydroxy-N-[(1S)-1-[4-(4-methyl-1,3-thiazol-5-yl)phenyl]ethyl]pyrrolidine-2-carboxamide] | – | 80 to 100% | < 600 nM | 1000 to 3000 nM | 20 to 60%
C#Cc1c(F)ccc2cc(O)cc(-c3ncc4c(N5CC6CCC(C5)N6)nc(OCCN5CCC(COc6cc([C@H](C(=O)N7C[C@H](O)C[C@H]7C(=O)N[C@@H](C)c7ccc(-c8scnc8C)cc7)C(C)C)on6)CC5)nc4c3F)c12 [Compound 39, (2S,4R)-1-[(2R)-2-{3-[(1-{2-[(4-{3,8-diazabicyclo[3.2.1]octan-3-yl}-7-(8-ethynyl-7-fluoro-3-hydroxynaphthalen-1-yl)-8-fluoropyrido[4,3-d]pyrimidin-2-yl)oxy]ethyl}piperidin-4-yl)methoxy]-1,2-oxazol-5-yl}-3-methylbutanoyl]-4-hydroxy-N-[(1S)-1-[4-(4-methyl-1,3-thiazol-5-yl)phenyl]ethyl]pyrrolidine-2-carboxamide] | – | 80 to 100% | < 600 nM | 1000 to 3000 nM | 20 to 60%
